Patent publication US20230293599A1, “BACTERIAL COMPOSITIONS WITH ANTI-INFLAMMATORY ACTIVITY” (Universiteit Gent, priority 2020, published 2023)
Like-named read-outs stand apart in the source and are kept apart here.

What was measured:
S. aureus = format: cell-based, Staphylococcus aureus
Description: (§1) Using Phenotype Microarray (PM) panels (Biolog), the influence of 190 carbon sources on the growth of the potential probiotic species R. mucilaginosa, R. dentocariosa, R. gilardii, G. haemolysans, and common respiratory pathogens P. aeruginosa, and S. aureus was determined. PM1 and PM2 panels (Biolog) were inoculated according to the manufacturer's instructions. Growth curves were generated for 35 hours by measuring the absorbance at 590 nm using an EnVision (Perkin Elmer) plate reader.

P. aeruginosa = test: Biolog Phenotype Microarray PM1-2 growth on carbon sources; format: cell-based, Pseudomonas aeruginosa
Description: as §1

[1] = 35 hours, absorbance 590 nm, n = 1, cells without values AUC < 50

OC[C@H]1O[C@@H](O[C@@H]2[C@@H](CO)OC(O)(CO)[C@H]2O)[C@H](O)[C@@H](O)[C@H]1O (mixture of isomers) [Lactulose]
AUC of growth curve, S. aureus (S. aureus): 656.2

C[N+](C)(C)CC(O)CC(=O)[O-] (racemic) [D,L-Carnitine]
AUC of growth curve, P. aeruginosa (P. aeruginosa; [1]): 574.6

NCC(O)c1ccc(O)cc1 (racemic) [D,L-Octopamine]
AUC of growth curve, S. aureus (S. aureus): 166.2 | AUC of growth curve, P. aeruginosa (P. aeruginosa; [1]): 1142.2

CC(O)CO (centres unmarked) [1,2-Propanediol]
AUC of growth curve, S. aureus (S. aureus): 150.0

NCCO [2-Aminoethanol]
AUC of growth curve, P. aeruginosa (P. aeruginosa; [1]): 293.7

Nc1ncnc2c1ncn2C1CC(O)C(CO)O1 (centres unmarked) [2-Deoxy-Adenosine]
AUC of growth curve, S. aureus (S. aureus): 419.1

O=C[C@@H](O)[C@H](O[C@@H]1O[C@H](CO)[C@H](O)[C@H](O)[C@H]1O)[C@H](O)CO [3-0-β-D-Galacto-pyranosyl-D-Arabinose]
AUC of growth curve, S. aureus (S. aureus): 446.3 | AUC of growth curve, P. aeruginosa (P. aeruginosa; [1]): 188.8

CC(=O)C(C)O (centres unmarked) [3-Hydroxy 2-Butanone]
AUC of growth curve, S. aureus (S. aureus): 255.6 | AUC of growth curve, P. aeruginosa (P. aeruginosa; [1]): 183.2

O=C(O)c1ccc(O)cc1 [4-Hydroxy Benzoic Acid]
AUC of growth curve, S. aureus (S. aureus): 140.6 | AUC of growth curve, P. aeruginosa (P. aeruginosa; [1]): 909.3

CC(N)=O [Acetamide]
AUC of growth curve, S. aureus (S. aureus): 93.1 | AUC of growth curve, P. aeruginosa (P. aeruginosa; [1]): 123.0

CC(=O)O [Acetic Acid]
AUC of growth curve, S. aureus (S. aureus; [1]): 898.7

N#C[C@H](O[C@@H]1O[C@H](CO[C@@H]2O[C@H](CO)[C@@H](O)[C@H](O)[C@H]2O)[C@@H](O)[C@H](O)[C@H]1O)c1ccccc1 [Amygdalin]
AUC of growth curve, S. aureus (S. aureus): 254.6

CCCC(=O)O [Butyric Acid]
AUC of growth curve, S. aureus (S. aureus): 1011.5

CCCCCC(=O)O [Caproic Acid]
AUC of growth curve, S. aureus (S. aureus): 908.9

C/C(=C/C(=O)O)C(=O)O [Citraconic Acid]
AUC of growth curve, S. aureus (S. aureus): 86.7

CC(O)(CC(=O)O)C(=O)O (centres unmarked) [Citramalic Acid]
AUC of growth curve, P. aeruginosa (P. aeruginosa; [1]): 183.9

C[C@@H](N)C(=O)O [D-Alanine]
AUC of growth curve, S. aureus (S. aureus): 464.9 | AUC of growth curve, P. aeruginosa (P. aeruginosa; [1]): 668.1

OC[C@@H](O)C(O)[C@H](O)CO [D-Arabitol]
AUC of growth curve, S. aureus (S. aureus): 832.3

N[C@H](CC(=O)O)C(=O)O [D-Aspartic Acid]
AUC of growth curve, S. aureus (S. aureus): 242.2 | AUC of growth curve, P. aeruginosa (P. aeruginosa; [1]): 101.3

OC[C@H]1O[C@@H](O[C@H]2[C@H](O)[C@@H](O)[C@H](O)O[C@@H]2CO)[C@H](O)[C@@H](O)[C@@H]1O [D-Cellobiose]
AUC of growth curve, S. aureus (S. aureus; [1]): 495.8 | AUC of growth curve, P. aeruginosa (P. aeruginosa; [1]): 70.0

O=C1O[C@@H]([C@H](O)CO)[C@H](O)[C@H]1O [D-Galactonic-Acid-γ-Lactone]
AUC of growth curve, P. aeruginosa (P. aeruginosa): 397.9

O=C(O)[C@H](O)[C@@H](O)[C@H](O)[C@H](O)CO [D-Gluconic Acid]
AUC of growth curve, S. aureus (S. aureus): 321.0 | AUC of growth curve, P. aeruginosa (P. aeruginosa): 617.8

N[C@@H](C(=O)O)[C@@H](O)[C@H](O)[C@H](O)CO [D-Glucosaminic Acid]
AUC of growth curve, S. aureus (S. aureus): 267.3

O=P(O)(O)O[C@H]1O[C@H](CO)[C@@H](O)[C@H](O)[C@H]1O [D-Glucose-1-Phosphate]
AUC of growth curve, S. aureus (S. aureus): 189.0

O=C[C@H](O)[C@@H](O)[C@H](O)[C@H](O)COP(=O)(O)O [D-Glucose-6-Phosphate]
AUC of growth curve, S. aureus (S. aureus): 168.0 | AUC of growth curve, P. aeruginosa (P. aeruginosa; [1]): 399.6

O=C[C@H](O)[C@@H](O)[C@H](O)[C@H](O)C(=O)O [D-Glucuronic Acid]
AUC of growth curve, S. aureus (S. aureus): 292.7 | AUC of growth curve, P. aeruginosa (P. aeruginosa; [1]): 543.2

COC(=O)[C@@H](C)O [D-Lactic Acid Methyl Ester]
AUC of growth curve, S. aureus (S. aureus): 517.2 | AUC of growth curve, P. aeruginosa (P. aeruginosa; [1]): 1081.7

OC[C@@H](O)[C@@H](O)[C@H](O)[C@H](O)CO [D-Mannitol]
AUC of growth curve, S. aureus (S. aureus): 884.6 | AUC of growth curve, P. aeruginosa (P. aeruginosa; [1]): 420.0

OC[C@H]1O[C@H](OC[C@H]2O[C@H](O[C@]3(CO)O[C@H](CO)[C@@H](O)[C@@H]3O)[C@H](O)[C@@H](O)[C@@H]2O)[C@H](O)[C@@H](O)[C@H]1O [D-Rafinose]
AUC of growth curve, S. aureus (S. aureus): 282.1

O=C1O[C@H](CO)[C@@H](O)[C@H]1O [D-Ribono-1,4-Lactone]
AUC of growth curve, S. aureus (S. aureus): 100.2

O=C(O)[C@@H](O)[C@@H](O)[C@H](O)[C@@H](O)C(=O)O [D-Saccharic Acid]
AUC of growth curve, S. aureus (S. aureus): 57.3 | AUC of growth curve, P. aeruginosa (P. aeruginosa; [1]): 108.8

N[C@H](CO)C(=O)O [D-Serine]
AUC of growth curve, S. aureus (S. aureus): 76.2

C[C@H](O)[C@@H](N)C(=O)O [D-Threonine]
AUC of growth curve, S. aureus (S. aureus): 87.8

OC[C@@H](O)[C@H](O)[C@H](O)[C@@H](O)CO [Dulcitol]
AUC of growth curve, P. aeruginosa (P. aeruginosa; [1]): 72.0

O=CO [Formic Acid]
AUC of growth curve, S. aureus (S. aureus): 474.0

O=C(O)CO [Glycolic Acid]
AUC of growth curve, S. aureus (S. aureus): 344.8

C=C(CC(=O)O)C(=O)O [Itaconic Acid]
AUC of growth curve, P. aeruginosa (P. aeruginosa; [1]): 790.8

C[C@H](N)C(N)=O [L-Alaninamide]
AUC of growth curve, S. aureus (S. aureus): 295.4

OC[C@H](O)C(O)[C@@H](O)CO [L-Arabitol]
AUC of growth curve, S. aureus (S. aureus): 165.7

O=C[C@@H](O)[C@H](O)[C@@H](O)[C@@H](O)CO [L-Glucose]
AUC of growth curve, S. aureus (S. aureus): 314.7

NCCCC[C@H](N)C(=O)O [L-Lysine]
AUC of growth curve, S. aureus (S. aureus; [1]): 331.6

N[C@@H](CO)C(=O)O [L-Serine]
AUC of growth curve, S. aureus (S. aureus): 558.2

O=C(O)[C@H](O)[C@@H](O)C(=O)O [L-Tartaric Acid]
AUC of growth curve, S. aureus (S. aureus): 163.4

C[C@@H](O)[C@H](N)C(=O)O [L-Threonine]
AUC of growth curve, S. aureus (S. aureus): 754.3

OC[C@@H](O)[C@@H](O[C@@H]1O[C@H](CO)[C@H](O)[C@H](O)[C@H]1O)[C@H](O)[C@@H](O)CO [Lactitol]
AUC of growth curve, S. aureus (S. aureus): 338.8

OC[C@@H](O)[C@@H](O[C@H]1O[C@H](CO)[C@@H](O)[C@H](O)[C@H]1O)[C@H](O)[C@@H](O)CO [Maltitol]
AUC of growth curve, S. aureus (S. aureus): 783.0

O=C(O)[C@H](O)[C@@H](O)[C@H](O)[C@H](O)CO[C@H]1O[C@H](CO)[C@H](O)[C@H](O)[C@H]1O [Melibionic Acid]
AUC of growth curve, S. aureus (S. aureus): 270.3

COC(=O)CCC(=O)O [Mono Methyl Succinate]
AUC of growth curve, S. aureus (S. aureus): 532.1

CC(=O)N[C@H]1C(O)O[C@H](CO)[C@H](O)[C@@H]1O (stereo partly drawn) [N-Acetyl-D-Galactosamine]
AUC of growth curve, S. aureus (S. aureus): 59.3

CC(=O)N[C@@H](CO)[C@@H](O)[C@H](O)[C@H](O)CO [N-Acetyl-D-Glucosaminitol]
AUC of growth curve, S. aureus (S. aureus): 381.9

CC(=O)N[C@H]1[C@H]([C@H](O)[C@H](O)CO)OC(O)(C(=O)O)C[C@@H]1O (some centres unmarked) [N-Acetyl-Neuraminic Acid]
AUC of growth curve, S. aureus (S. aureus): 647.5

O=C(O)C(=O)O [Oxalic Acid]
AUC of growth curve, S. aureus (S. aureus): 463.7

O=C(O)CCCCCCCCC(=O)O [Sebacic Acid]
AUC of growth curve, S. aureus (S. aureus): 252.2

OC[C@@]12OC[C@@H](O1)[C@@H](O)[C@@H](O)[C@@H]2O [Sedoheptulosan]
AUC of growth curve, S. aureus (S. aureus): 277.8

OC[C@H]1O[C@H](OC[C@H]2O[C@H](OC[C@H]3O[C@H](O[C@]4(CO)O[C@H](CO)[C@@H](O)[C@@H]4O)[C@H](O)[C@@H](O)[C@@H]3O)[C@H](O)[C@@H](O)[C@H]2O)[C@H](O)[C@@H](O)[C@H]1O [Stachyose]
AUC of growth curve, S. aureus (S. aureus): 324.4

Cc1cn([C@H]2C[C@H](O)[C@@H](CO)O2)c(=O)[nH]c1=O [Thymidine]
AUC of growth curve, S. aureus (S. aureus): 735.9

NCCc1ccc(O)cc1 [Tyramine]
AUC of growth curve, P. aeruginosa (P. aeruginosa; [1]): 684.5

OC[C@@H](O)[C@H](O)[C@@H](O)CO [Xylitol]
AUC of growth curve, S. aureus (S. aureus): 280.8

O=C(O)Cc1cccc(O)c1 [m-Hydroxy Phenyl Acetic Acid]
AUC of growth curve, P. aeruginosa (P. aeruginosa; [1]): 114.0

O[C@H]1[C@H](O)[C@@H](O)[C@H](O)[C@@H](O)[C@H]1O [m-inositol]
AUC of growth curve, S. aureus (S. aureus): 157.9

O=C(O)Cc1ccc(O)cc1 [p_Hydroxy Phenyl Acetic Acid]
AUC of growth curve, P. aeruginosa (P. aeruginosa; [1]): 987.9

OC[C@H]1O[C@@H](O[C@H]2[C@H](O)[C@@H](O)[C@@H](O)O[C@@H]2CO)[C@H](O)[C@@H](O)[C@H]1O [α-D-Lactose]
AUC of growth curve, S. aureus (S. aureus): 764.6

CCC(O)C(=O)O (stereo not drawn) [α-Hydroxy-Butyric Acid]
AUC of growth curve, S. aureus (S. aureus): 567.8

O=C1CCC(C(=O)O)O1 (stereo not drawn) [α-Hydroxy-Glutaric Acid γ-Lactone]
AUC of growth curve, S. aureus (S. aureus): 112.1

CCCC(=O)C(=O)O [α-Keto-Valeric Acid]
AUC of growth curve, S. aureus (S. aureus): 734.6

CO[C@H]1O[C@H](CO)[C@@H](O)[C@H](O)[C@H]1O [α-Methyl-D-Glucoside]
AUC of growth curve, S. aureus (S. aureus): 281.5

COC1OC(CO)C(O)C(O)C1O [α-Methyl-D-Mannoside]
AUC of growth curve, S. aureus (S. aureus): 264.2

OC[C@H]1O[C@@H](O)[C@H](O)[C@H](O)[C@@H]1O [β-D-Allose]
AUC of growth curve, S. aureus (S. aureus): 122.9

CC(O)CC(=O)O (stereo not drawn) [β-Hydroxy Butyric Acid]
AUC of growth curve, S. aureus (S. aureus): 326.7

CO[C@@H]1O[C@H](CO)[C@@H](O)[C@H](O)[C@H]1O [β-Methyl-D-Galactoside]
AUC of growth curve, S. aureus (S. aureus): 358.9

CO[C@@H]1O[C@H](C(=O)O)[C@@H](O)[C@H](O)[C@H]1O [β-Methyl-D-Glucuronic Acid]
AUC of growth curve, S. aureus (S. aureus): 400.6

COC1OCC(O)C(O)C1O [β-Methyl-D-Xyloside]
AUC of growth curve, S. aureus (S. aureus): 166.1

O=C(O)CCCO [γ-Hydroxy Butyric Acid]
AUC of growth curve, S. aureus (S. aureus): 343.7

Chondroitin Sulfate C
AUC of growth curve, S. aureus (S. aureus; [1]): 199.7

Gelatin
AUC of growth curve, S. aureus (S. aureus; [1]): 52.4

Gentiobiose
AUC of growth curve, S. aureus (S. aureus; [1]): 471.4

Glycogen
AUC of growth curve, S. aureus (S. aureus; [1]): 197.7

Laminarin
AUC of growth curve, S. aureus (S. aureus; [1]): 192.8

Mannan
AUC of growth curve, S. aureus (S. aureus; [1]): 154.5

Tween 20
AUC of growth curve, S. aureus (S. aureus): 214.4

Tween 80
AUC of growth curve, S. aureus (S. aureus): 468.6
